Assay results published in patent US12486227B2, “Small molecules for cancer therapy that reduce the expression of transcription factors KLF5 and EGR-1” (University of Florida Research Foundation, Incorporated, priority 2019, dated 2025).
Read-outs that look alike come from different tables or passages of the source.

Key:
[1] = system: DLD-1 colon cancer cells; assay: MTT viability assay, DLD-1; type: cell-based; conditions: Homo sapiens
Description: Specific Examples of compounds of the present disclosure have EC50 values estimated using a cell-based assay for binding to the KLF5 promoter and, in many cases, a follow-up viability assay (MTT) using DLD-1 colon cancer cells, a cell line known to highly express KLF5 and whose growth is adversely affected by the reduction of KLF5 levels. Assay protocols follow those described in the literature.^22,23 Other assays that are not described here but that are standard in the field may also be useful in establishing mechanism of action of these compounds.

[2] = system: HT-29 colorectal cancer cell line; assay: MTT growth assay, HT-29; type: cell-based; conditions: Homo sapiens, Table 1
Description: (§1) The observed activity is greater than that previously seen for ML264.

[3] = system: DLD-1, HCT-116, HT-29, and SW-620 colorectal cancer cell lines; assay: MTT assays for blocking growth of colorectal cancer cell lines (range over four lines); type: cell-based; conditions: Homo sapiens; DLD-1, HCT-116, HT-29, SW-620
Description: as §1

[4] = system: MAPK pathway; assay: Western blot of MAPK signaling pathway components; type: cell-based, human; conditions: DLD-1 and HCT116, 10 μM, 72 h
Description: SR18662 negatively regulates MAPK and WNT signaling pathway and cyclin levels. Myriad publications have shown that in both in vitro and in vivo contexts KLF5 is regulated by MAPK and WNT signaling pathways and that KLF5, in turn, has the ability to modulate the activity of these pathways (14, 18, 26-32). We have previously shown that treatment of CRCs with ML264 results in decreased activity of both the MAPK and WNT signaling pathways (24). Because SR15006 and SRI8662 are structurally related to ML264, we decided to investigate their ability to alter the expression levels of the components of these pathways. Thus, we treated DLD-1 and HCT116 CRCs with DMSO (vehicle) and tested compounds at 1 μM or 10 μM, collecting the cells for western blot analysis at 24, 48, and 72 h. […] Similar effects were seen when both cell lines were treated these compounds at 1 μM. Furthermore, the inhibitory effects of SR18662 on the components of the MAPK signaling pathway we observed at earlier time points than were apparent following treatment with ML264 or SR15006.
(§2) Western blot analysis. Total protein was extracted from cells with Laemmli buffer and the analysis was performed as described previously (24).

[5] = system: KLF5; assay: Western blot of KLF5 protein levels in DLD-1 cells; type: cell-based, human; conditions: 1 μM and 10 μM, 24 h
Experimental: In this experiment the test compounds were at 1 μM and 10 μM, and protein levels were measured after 24 h.
as §2

[6] = system: DLD-1 cells; assay: Apoptosis assay (Annexin V/PI, FACS), DLD-1; type: cell-based, human
Experimental: We performed an apoptosis assay using DLD-1 and HCT116 cells treated with vehicle or 1 μM or 10 μM of test compounds over the course of three days with Annexin V/P1 stain in combination with FACS analysis. […] This is accompanied by an increase in the population of cells in early and late apoptosis, as well as an increase in the dead cell population over the three days of treatment. […] This effect was more pronounced upon treatment with SR18662 than ML264 or SR15006 (FIGS. 4D-F). When a lower concentration (1 μM) of test compounds was used, only a small increase of the population of cells undergoing early apoptosis was seen after 72 h treatment with SRI8662.
Cell proliferation, cell cycle and apoptosis assays. For cell proliferation experiments, cell cycle, and apoptosis determination, DLD-1 and HCT116 cells were treated with 1 or 10 μM of each compound or with vehicle (DMSO). The cells were collected at 24, 48, and 72 h post-treatment and analyzed as previously described (24). Each experiment was performed in triplicate.

[7] = system: DLD-1-derived xenografts; assay: Histology, immunofluorescence and immunohistochemistry of DLD-1-derived xenografts; type: in vivo, mouse
Experimental: SR18862 inhibits the growth of CRC xenografts in vivo. To evaluate SRI8662 in an in vivo model we used CRC cells for a mouse xenograft study. As described in more detail in the Examples section, nude mice were injected with DLD-1 CRC cells. Tumors were allowed to grow to an approximate size of 100 mm^3, and then mice were injected with vehicle or with varied concentrations of SR18662, given once a day or twice a day for five days, followed by two days without injection, and then followed by five days with injections. The experiment was completed the day after the last injection. […] Significant differences in tumor size are apparent at the end of the treatment schedule (FIG. 6B). To further characterize the impact of SR18662 on the features of isolated tumors, we compared vehicle-treated mice with mice that had been treated with SR18662 twice a day. […] Because SR18662 had induced cell apoptosis and death in the in vitro setting, we stained the xenografts with PanCK and TUNEL to estimate the levels of apoptosis in the in vivo context.
Immunofluorescence and immunohistochemistry. Tumors dissected from mice were first fixed in Bouin's fixative (50% ethanol+5% acetic acid in water) for 1 h, then fixed overnight in 10% buffered formalin (Fisher Scientific). The tissues were then paraffin-embedded using an automated processor, sectioned at 5 μm, collected onto charged slides and baked in a 65° C. oven overnight, and were subsequently deparaffinized in xylene. […]
Tissue sections were first incubated with blocking buffer (5% BSA in TBS-Tween) for 30 min at 37° C. and then with primary antibody at 4° C. overnight in a humidified chamber with gentle shaking. […] Slides were analyzed under a Nikon Eclipse 90i microscope (Nikon) and representative photomicrographs were taken. […]

[8] = system: major human CYP450 liver enzymes; assay: Inhibition of human CYP450 liver enzymes; type: in vitro ADME
[9] = 25 mg/kg twice per day vs vehicle

## CS(=O)(=O)N1CCN(C(=O)CNC(=O)/C=C/c2ccc(Cl)c(Cl)c2)CC1 [Example 9, (E)-3-(3,4-dichlorophenyl)-N-(2-(4-(methylsulfonyl)piperazin-1-yl)-2-oxoethyl)acrylamide]
[1]; MTT, Table 1, read-out: EC50 (nM) DLD-1
  EC50: 1.7 nM
[1]; Table 2, read-out: Approximate potency (EC50 · mol/L) (DLD1, MTT assay)
  EC50: 1.68 nM
[2]
  EC50: 40 nM
[3]
  EC50: 1.74 nM
[4]
  expression levels of MAPK pathway components: negatively regulated the expression levels of the components of the MAPK pathway
[5]
  KLF5 protein levels by Western blot: significantly reduced
[6]; DLD-1, 1 μM, 48 h and 72 h
  healthy cell count and apoptosis: decrease in healthy cell count at 48 h and 72 h and an increase in early and late apoptosis
[6]; DLD-1, 10 μM, 48 and 72 h
  population of healthy cells: significant decrease in the population of healthy cells
[7]; 25 mg/kg twice a day, immunohistochemistry
  expression levels of KLF5 and EGR1 in xenografts: significantly decreased
[7]; [9]
  TUNEL staining in xenografts: increase of TUNEL staining
  fibrosis (PanCK/Vimentin stain) in xenografts: higher level of fibrosis
[8]
  inhibition of major human CYP450 liver enzymes: does not inhibit
